In patent US20250280861A1, “SWEETENER COMPOSITIONS” (Firmenich Incorporated, priority 2022, published 2025):

Target: T1, hT1R2/T1R3 taste receptor (Homo sapiens, UniProt Q7RTX0+Q8TE23)
T1 sequence (Q8TE23 20-839): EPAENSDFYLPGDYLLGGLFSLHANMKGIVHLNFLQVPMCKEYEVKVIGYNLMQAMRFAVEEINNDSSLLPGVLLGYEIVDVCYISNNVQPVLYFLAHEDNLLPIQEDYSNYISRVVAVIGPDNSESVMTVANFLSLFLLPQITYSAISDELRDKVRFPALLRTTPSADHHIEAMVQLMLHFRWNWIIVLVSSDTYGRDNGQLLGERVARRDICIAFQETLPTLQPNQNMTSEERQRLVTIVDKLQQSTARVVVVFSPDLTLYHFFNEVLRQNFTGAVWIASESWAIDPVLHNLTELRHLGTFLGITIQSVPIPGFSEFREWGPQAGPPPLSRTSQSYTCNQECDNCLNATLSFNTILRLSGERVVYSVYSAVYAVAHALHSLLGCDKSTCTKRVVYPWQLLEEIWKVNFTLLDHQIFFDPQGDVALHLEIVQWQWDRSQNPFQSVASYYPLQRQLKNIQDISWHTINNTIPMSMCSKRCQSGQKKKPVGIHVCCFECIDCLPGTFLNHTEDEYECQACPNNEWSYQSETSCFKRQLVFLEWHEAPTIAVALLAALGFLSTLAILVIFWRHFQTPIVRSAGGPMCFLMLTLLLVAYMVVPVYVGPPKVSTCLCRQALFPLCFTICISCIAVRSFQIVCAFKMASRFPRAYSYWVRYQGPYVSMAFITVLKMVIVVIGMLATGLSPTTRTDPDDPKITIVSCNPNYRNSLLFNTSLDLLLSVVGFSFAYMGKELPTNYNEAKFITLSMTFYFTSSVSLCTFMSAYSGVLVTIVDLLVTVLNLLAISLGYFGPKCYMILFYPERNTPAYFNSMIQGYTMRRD
T1 sequence (Q7RTX0 21-852): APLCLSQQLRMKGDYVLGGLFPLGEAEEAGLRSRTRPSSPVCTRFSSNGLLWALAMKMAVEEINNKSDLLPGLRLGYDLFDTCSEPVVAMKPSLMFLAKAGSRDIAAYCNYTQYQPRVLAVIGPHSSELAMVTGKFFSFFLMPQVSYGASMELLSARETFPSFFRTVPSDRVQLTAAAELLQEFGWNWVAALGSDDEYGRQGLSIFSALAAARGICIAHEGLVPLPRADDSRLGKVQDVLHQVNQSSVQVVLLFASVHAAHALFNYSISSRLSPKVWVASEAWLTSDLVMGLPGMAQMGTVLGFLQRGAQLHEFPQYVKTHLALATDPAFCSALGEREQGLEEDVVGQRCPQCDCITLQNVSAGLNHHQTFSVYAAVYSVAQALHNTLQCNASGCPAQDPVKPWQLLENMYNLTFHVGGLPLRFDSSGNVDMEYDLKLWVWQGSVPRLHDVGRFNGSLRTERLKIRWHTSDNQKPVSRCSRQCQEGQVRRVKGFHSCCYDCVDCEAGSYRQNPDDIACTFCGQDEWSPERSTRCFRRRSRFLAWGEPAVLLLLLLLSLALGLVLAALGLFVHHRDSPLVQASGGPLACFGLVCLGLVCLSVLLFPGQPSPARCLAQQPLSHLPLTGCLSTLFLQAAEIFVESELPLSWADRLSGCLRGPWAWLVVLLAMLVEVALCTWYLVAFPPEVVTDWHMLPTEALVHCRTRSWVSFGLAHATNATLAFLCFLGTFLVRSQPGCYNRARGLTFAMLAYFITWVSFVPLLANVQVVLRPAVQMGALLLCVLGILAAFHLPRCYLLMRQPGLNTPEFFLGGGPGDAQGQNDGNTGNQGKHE
Experiment: agonist activity against the hT1R2/T1R3 taste receptor (sweet receptor based assay)
Type: cell-based
Details: not given
Protocol: Compounds described in this application show moderate to potent agonist effect on the sweet receptor based assay. Potencies (EC50 values, e.g. see Tables 1-3) for agonist activity were measured against the hT1R2/T1R3 taste receptor. FIG. 1 exemplifies the data generated during the screening to determine EC50 values.

Compound | EC50
COCC(C(=O)NCC(C)C)N1CCC(C#N)(c2cccc(F)c2F)CC1 (stereo not shown) [Compound 129] | 4.3 µM
CC(C)CNC(=O)C(C)(C)N1CCC(C#N)(c2cccc(F)c2F)CC1 [Compound 79, 2-(4-cyano-4-(2,3-difluorophenyl)piperidin-1-yl)-N-isobutyl-2-methylpropanamide] | 1.6 µM
CCC(C)(C)NC(=O)C(C)(C)N1CCC(C#N)(c2cccc(F)c2F)CC1 [Compound 127] | 1.5 µM
COCCNC(=O)C(C)(C)N1CCC(C#N)(c2cccc(F)c2F)CC1 [Compound 125] | > 10 µM
COCC1(c2ccccc2)CCN(C(C)(C)C(=O)NCC(C)C)CC1 [Compound 120] | > 10 µM
CC(C)CNC(=O)C(C)(C)N1CCC(C#N)(c2ccccc2)CC1 [Compound 124] | 2.2 µM

Same assay, conditions: agonist activity, hT1R2/T1R3; read-out: Sweet EC50

Compound | EC50
Cc1cccc(N2CCN(C(C)(C)C(=O)NC3CCCCC3)CC2)c1C [Compound 13] | 9.4 µM
Cc1ccccc1C1CCN(C(C)(C)C(=O)NCC(C)C)CC1 [Compound 92] | 1.6 µM
CC(C)CNC(=O)C(C)(C)N1CCC(c2cccc(CN(C)C)c2)CC1 [Compound 103] | > 10 µM
CC(C)CNC(=O)C(C)(C)N1CCC(c2cccc(F)c2)CC1 [Compound 96] | 0.6 µM
CC(C)CNC(=O)C(C)(C)N1CCN(c2ccccc2F)CC1 [Compound 2, 2-(4-(2-fluorophenyl)piperazin-1-yl)-N-isobutyl-2-methylpropanamide] | 6.8 µM
COCc1ccccc1C1=CCN(C(C)(C)C(=O)NCC(C)C)CC1 [Compound 64] | > 10 µM
CC(C)CNC(=O)C(C)(C)N1CCN(c2ccc(F)cc2F)CC1 [Compound 37] | > 10 µM
CC(C)CNC(=O)C(C)(C)N1CCN(c2cccc(CO)c2F)CC1 [Compound 35] | > 10 µM
COCc1ccccc1N1CCN(C(C)(C)C(=O)NCC(C)C)CC1 [Compound 47] | 6.8 µM
CC(C)CNC(=O)CN1CCC(c2ccccc2)CC1 [Compound 89] | 6.7 µM
COCCNC(=O)C(C)(C)N1CCN(c2cccc(C)c2C)CC1 [Compound 22] | > 10 µM
Cc1cccc(N2CCN(CC(=O)NCC(C)C)CC2)c1C [Compound 12] | 9.7 µM
CC(C)CNC(=O)C(C)(C)N1CCC(c2ccccc2N(C)C)CC1 [Compound 101] | > 10 µM
CC(C)CNC(=O)C(C)(C)N1CCN(c2cccc(F)c2CO)CC1 [Compound 51, 2-(4-(3-fluoro-2-(hydroxymethyl)phenyl)piperazin-1-yl)-N-isobutyl-2-methylpropanamide] | > 10 µM
COc1ccccc1N1CCN(C(C)(C)C(=O)NCC(C)C)CC1 [Compound 52] | > 10 µM
CCC(CC)CNC(=O)C(C)(C)N1CCN(c2cccc(C)c2C)CC1 [Compound 21] | > 10 µM
CC(C)CNC(=O)C(C)(C)N1CCC(c2ccccc2C(=O)N(C)C)CC1 [Compound 105] | > 10 µM
CC(C)CNC(=O)C(C)(C)N1CC=C(c2cccc(CN(C)C)c2)CC1 [Compound 71] | > 10 µM
COCc1cccc(N2CCN(C(C)(C)C(=O)NCC(C)C)CC2)c1F [Compound 4, 2-(4-(2-fluoro-3-(methoxymethyl)phenyl)piperazin-1-yl)-N-isobutyl-2-methylpropanamide] | 2.1 µM
COCC(C(=O)NCC(C)C)N1CCC(c2ccccc2)CC1 (stereo not shown) [Compound 113] | 4.4 µM
COCC(C(=O)NCC(C)C)N1CCC(c2cccc(F)c2F)CC1 (stereo not shown) [Compound 114] | 0.4 µM
COCc1c(F)cccc1N1CCN(C(C)(C)C(=O)NCC(C)C)CC1 [Compound 5, 2-(4-(3-fluoro-2-(methoxymethyl)phenyl)piperazin-1-yl)-N-isobutyl-2-methylpropanamide] | 2.1 µM
CC(C)CNC(=O)C(C)(C)N1CCN(c2ccccc2C#N)CC1 [Compound 48] | > 10 µM
CC(C)CNC(=O)C(C)(C)N1CCC(c2cccc3c2OCO3)CC1 [Compound 104] | 1.7 µM
COCc1cccc(C2=CCN(C(C)(C)C(=O)NCC(C)C)CC2)c1F [Compound 60] | 1.2 µM
CC(C)(C(=O)NC1CC1)N1CCC(c2ccccc2)CC1 [Compound 82] | 10.4 µM

Compound | EC50
CC(C)CNC(=O)C(C)(C)N1CCN(c2cc(F)ccc2F)CC1 [Compound 39] | > 10 µM
CC(C)(C(=O)NC1CCC1)N1CCC(c2ccccc2)CC1 [Compound 83] | > 10 µM
Cc1cccc(N2CCN(C(C)(C)C(=O)NC(C)(C)CO)CC2)c1C [Compound 24] | > 10 µM
CC(C)CNC(=O)C(C)(C)N1CC=C(c2cccc3c2OCO3)CC1 [Compound 72] | > 10 µM
CCC(CC)NC(=O)C(C)(C)N1CCN(c2cccc(C)c2C)CC1 [Compound 20] | 5.6 µM
CC(C)CNC(=O)C(C)(C)N1CC=C(c2cccc(CO)c2F)CC1 [Compound 66] | > 10 µM
CC(C)CNC(=O)C(C)(C)N1CC=C(c2cccc(C(=O)N(C)C)c2)CC1 [Compound 74] | > 10 µM
CC(C)CNC(=O)C(C)(C)N1CCN(c2cccc(F)c2)CC1 [Compound 44] | > 10 µM
CC(C)CNC(=O)C(C)(C)N1CCN(c2ccccc2)CC1 [Compound 34] | > 10 µM
COCc1ccc(C2=CCN(C(C)(C)C(=O)NCC(C)C)CC2)c(F)c1 [Compound 69] | > 10 µM
CC(C)(C(=O)NC1CC1)N1CCN(c2cccc(F)c2F)CC1 [Compound 33] | 3.9 µM
CC(C)CNC(=O)C(C)(C)N1CCN(c2ccccc2CO)CC1 [Compound 6] | > 10 µM
Cc1cccc(C2CCN(C(C)(C)C(=O)NCC(C)C)CC2)n1 [Compound 109] | 5.1 µM
CCNC(=O)C(C)(C)N1CCN(c2cccc(C)c2C)CC1 [Compound 8] | > 10 µM
CC(C)CNC(=O)C(C)(C)N1CCc2ccccc2C1 [Compound 116] | 3.8 µM
Cc1ncccc1C1=CCN(C(C)(C)C(=O)NCC(C)C)CC1 [Compound 76] | > 10 µM
COCc1c(F)cccc1C1=CCN(C(C)(C)C(=O)NCC(C)C)CC1 [Compound 61] | 6.5 µM
CC(C)CNC(=O)C(C)(C)N1CCC(c2ccccc2)CC1 [Compound 80, N-isobutyl-2-methyl-2-(4-phenylpiperidin-1-yl)propanamide] | 0.7 µM
Cc1cccc(C)c1N1CCN(C(C)(C)C(=O)NCC(C)C)CC1 [Compound 40] | > 10 µM
COC(=O)c1ccccc1N1CCN(C(C)(C)C(=O)NCC(C)C)CC1 [Compound 49] | > 10 µM
Cc1ncccc1C1CCN(C(C)(C)C(=O)NCC(C)C)CC1 [Compound 108] | > 10 µM
Cc1cccc(N2CCN(C(C)(C)C(=O)NCC3CCCC3)CC2)c1C [Compound 15] | 6.9 µM
Cc1cccc(N2CCN(C(C)C(=O)NCC(C)C)CC2)c1C (stereo not shown) [Compound 29] | 1.4 µM
CC(C)CNC(=O)C(C)(C)N1CCC2(CC1)OCc1ccccc12 [Compound 121] | 5.6 µM
CC(C)CNC(=O)C(C)(C)N1CC=C(c2ccccc2N(C)C)CC1 [Compound 67] | > 10 µM
CC(C)CNC(=O)C(C)(C)N1CCN(c2ccccn2)CC1 [Compound 53] | > 10 µM
